Laboratory results as given in patent EP2265631B1, “NOVEL ANTIMICROBIAL PEPTIDES AND THEIR APPLICATION” (Ustav Organicke Chemie a Biochemie Akademie Ved Ceske …, priority 2008, dated 2009).

Legend:
Bacilus subtilis = assay: Determination of antimicrobial activity (MIC, bacterial growth in LB broth); assay type: cell-based; settings: minimum inhibitory concentration (MIC) per method, 37°C, 20 h, read-out: Antimicrobial activity IC50 [µM] B.s.
Procedure: (§1) Antimicrobial activity was determined as a quantitative minimum inhibitory concentration (MIC) by observing bacterial growth in the presence of different concentrations of tested peptides. Mid-exponential phase bacteria were added to the solutions of the tested antimicrobial peptide at different concentrations (0.5 to 100 µM) in LB broth in multi-well plates. The plates were incubated at 37°C for 20 h while being continuously shaken in a Bioscreen C instrument (Finland). The absorbance was measured at 540 nm every 15 min and each peptide was tested at least 3 times in duplicate. 1.2.10^3 - 7.5.10^3 CFU of bacteria was routinely used in the experiments. Tetracycline in a concentration range of 0.1 - 50 µM was tested as a standard.

Escherichia coli = assay: as above; assay type: cell-based; settings: minimum inhibitory concentration (MIC) per method, 37°C, 20 h, read-out: Antimicrobial activity IC50 [µM] E. c.
Procedure: as §1

Pseudomonnas aeruginosa = assay: as above; assay type: cell-based; settings: minimum inhibitory concentration (MIC) per method, 37°C, 20 h, read-out: Antimicrobial activity IC50 [µM] P.a.
Procedure: as §1

Staphylococcus aureus = assay: as above; assay type: cell-based; settings: minimum inhibitory concentration (MIC) per method, 37°C, 20 h, read-out: Antimicrobial activity IC50 [µM] S.a.
Procedure: as §1

rat red blood cells = assay: Determination of hemolytic activity; assay type: cell-based
Procedure: The peptides in the concentration (1-200 µM) were incubated with rat red blood cells (5%) for 1 h at 37°C in a physiological solution at a final volume of 0.2 ml. The samples were then centrifuged for 5 min at 250 g, and the absorbance of the supernatant was determined at 540 nm. Supernatants of red blood cells suspended in physiological solution and in 0.2% TRITON X100 in physiological solution served as controls for zero hemolysis (blank) and 100% hemolysis, respectively. Table 3. Antimicrobial and hemolytic activity of melectin (I) and its synthetic analogs of formulas II/1 to II/18

[1] = tested on: human cervix carcinoma HeLa S3; assay: Cytostatic effect on cancer cells (e.g. MTT test); assay type: cell-based; settings: 24-72 h incubation, 50% decrease in cell viability; read-out: IC50 [µM] HeLaS3
Procedure: (§2) Tumor cells in suspension or adherent cells were incubated under standard conditions in appropriate culture media for 24-72 h with the peptides in 2-40 micromolar concentration. After this time, the number of living cells was determined using routine tests, e.g. MTT test. The IC50 was determined as concentration of peptides, which caused 50% decrease in cell viability in comparison to controls (no peptide present). In preliminary tests mouse lymphocytic leukemia L1210 (CCL 219), CCRF-CEM T lymphoblastoid (human acute lymphoblastic leukemia, CCL 119), human promyelocytic leukemia HL-60 (CCL 240), human cervix carcinoma HeLa S3, rat pheochromocytoma PC12, human colon adenocarcinoma SW480 (CCL-228), and normal rat epithelial cells (IEC-6, CRL-1592) from ATCC (Manassas, VA, USA), were used. […] Table 4. Cytostatic effect of selected peptides on cancer cells

[2] = tested on: human colon adenocarcinoma SW480; assay: Cytostatic effect on cancer cells (e.g. MTT test); assay type: cell-based; settings: 24-72 h incubation, 50% decrease in cell viability
Procedure: as §2

[3] = tested on: human promyelocytic leukemia HL-60; assay: Cytostatic effect on cancer cells (e.g. MTT test); assay type: cell-based; settings: 24-72 h incubation, 50% decrease in cell viability
Procedure: as §2

[4] = tested on: mouse lymphocytic leukemia L1210; assay: Cytostatic effect on cancer cells (e.g. MTT test); assay type: cell-based; settings: 24-72 h incubation, 50% decrease in cell viability
Procedure: as §2

[5] = tested on: rat pheochromocytoma PC12; assay: Cytostatic effect on cancer cells (e.g. MTT test); assay type: cell-based; settings: 24-72 h incubation, 50% decrease in cell viability
Procedure: as §2

[6] = tested on: CCRF-CEM T lymphoblastoid; assay: Cytostatic effect on cancer cells (e.g. MTT test); assay type: cell-based, human; settings: 24-72 h incubation, 50% decrease in cell viability
Procedure: as §2

Tumor cells = assay: Cytostatic effect on cancer cells, summary over the cell panel; assay type: cell-based; settings: range over the tumor cell lines, preliminary tests
Procedure: as §2

bacteria = assay: Antimicrobial effect, general statement; assay type: cell-based
Procedure: as §1

`CC[C@H](C)[C@H](NC(=O)[C@H](CO)NC(=O)[C@H](CC(C)C)NC(=O)[C@H](Cc1ccccc1)NC(=O)CN)C(=O)N[C@@H](CC(C)C)C(=O)N[C@@H](CCCCN)C(=O)N[C@@H](CCCCN)C(=O)N[C@H](C(=O)N[C@@H](CC(C)C)C(=O)N1CCC[C@H]1C(=O)N[C@@H](CCCCN)C(=O)N[C@H](C(=O)N[C@@H](CCSC)C(=O)N[C@@H](C)C(=O)N[C@@H](Cc1cnc[nH]1)C(=O)N[C@@H](CCSC)C(=O)N[C@@H](CCCCN)C(N)=O)C(C)C)C(C)C` [Peptide I, H-Gly-Phe-Leu-Ser-Ile-Leu-Lys-Lys-Val-Leu-Pro-Lys-Val-Met-Ala-His-Met-Lys-NH2] was tested, and the IC50 (Bacilus subtilis) was 0.8 µM, the IC50 (Escherichia coli) was 2 µM and the IC50 (Pseudomonnas aeruginosa) was 18.5 µM. The IC50 (Staphylococcus aureus) was 6.8 µM, the “hemolytic activity (in words)” value (rat red blood cells) was “low hemolytic activity” and the Hemolytic activity (rat red blood cells; rat red blood cells (5%), 1 h at 37°C, peptides 1-200 µM) was over 100 µM. It also gave an IC50 [1] of 18.1 µM, an IC50 [2] of 25 µM and an IC50 [3] of over 10 µM. The IC50 [4] was over 10 µM, the IC50 [5] was 10 µM and the IC50 [6] was over 10 µM. The IC50 (Tumor cells) was 4 to 30 µM and the “antimicrobial effect (in words)” value (bacteria) was “strong antimicrobial effect”.
